# Data: patent US10757937B2, “Sulfonamides that activate ABA receptors” (The Regents of the University of California, priority 2014, dated 2020)
# Like-named read-outs stand apart in the source and are kept apart here.
# Key:
# PYL11 = target: T1, PYL11 (Arabidopsis thaliana, UniProt Q9FJ50); assay: receptor-mediated PP2C (HAB1) inhibition in vitro assay; format: biochemical; conditions: Table VII; read-out: PP2C Dose Curves PYL11 (IC50)
# T1 construct: made in house; host or cells: E. coli BL21[DE3]pLysS
# T1 sequence (Q9FJ50 1-161): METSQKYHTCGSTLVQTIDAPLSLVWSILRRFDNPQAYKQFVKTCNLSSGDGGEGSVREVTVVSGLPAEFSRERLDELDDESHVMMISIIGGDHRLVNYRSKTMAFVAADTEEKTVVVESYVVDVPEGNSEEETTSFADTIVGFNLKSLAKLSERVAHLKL
# T1 sequence (Q9CAJ0 23-511 partner): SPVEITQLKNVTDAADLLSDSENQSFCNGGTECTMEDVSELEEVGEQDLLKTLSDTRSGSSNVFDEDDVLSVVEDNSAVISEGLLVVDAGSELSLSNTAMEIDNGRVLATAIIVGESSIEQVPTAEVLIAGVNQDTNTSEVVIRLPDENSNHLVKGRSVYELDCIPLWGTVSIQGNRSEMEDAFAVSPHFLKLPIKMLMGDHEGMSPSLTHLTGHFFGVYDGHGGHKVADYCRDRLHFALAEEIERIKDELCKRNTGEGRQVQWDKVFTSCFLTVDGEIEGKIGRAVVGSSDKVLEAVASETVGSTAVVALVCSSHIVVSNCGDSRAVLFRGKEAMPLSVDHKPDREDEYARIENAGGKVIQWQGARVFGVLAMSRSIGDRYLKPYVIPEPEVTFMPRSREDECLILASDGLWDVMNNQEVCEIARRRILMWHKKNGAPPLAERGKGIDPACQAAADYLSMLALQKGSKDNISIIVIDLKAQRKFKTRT
# Protocol: (§1) A family of 62 structurally related N-acyl sulfonamides (Tables I-V) were tested for ABA agonist activity using multiple receptor-mediated PP2C inhibition in vitro assays (Park et al., 2009). […] The constructs utilized for protein expression have been previously described (Okamoto et al. 2013). For constructs encoding 6X-His-fusion proteins (all receptors except PYL11), the coding sequences were of the receptors were cloned in the vector pET28, expressed in BL21[DE3]pLysS E. coli host cells at 18° C. overnight, and subsequently purified from sonicated lysates using Ni-NTA agarose (Qiagen, USA), according to the manufacturer's instructions. PYL11 was constructed as a maltose binding protein fusion in the vector pMAL-c, expressed in BL21┌DE3┐pLysS host cells and purified using amylose resin (New England Biolabs) as described by the manufacturer. Recombinant GST-HAB1 was expressed and purified as described previously (Park et al., 2009). PP2C activity assays were conducted using the fluorogenic phosphatase substrate 4-methylumbelliferyl-phosphate. Recombinant receptors and HAB1 were used to examine ligand-induced PP2C inactivation in response to multiple test compounds. Enzyme inhibition assays were conducted using the following assay conditions: 50 nM GST-PP2C, 100 mM Tris-OAc (pH 7.9), 100 mM NaCl, 1 mM MnCl2, 1% β-mercaptoethanol. […] Because of this, the ratio of each receptor used in the PP2C-inhibitions assays was established empirically as the minimum fold-excess of receptor required to elicit maximal PP2C inhibition at a saturating ABA concentration (10 μM).
# (§2) Based on this criterion, we used a ratio of 2:1 receptor in the assays described herein.
# (§3) Using the above assay conditions, compounds were tested at 25 μM for agonist activity on PYL4, PYL5, PYL8 and PYL9. […] Consequently, a subset of the compounds was tested at multiple concentrations against 11 receptors so that IC50 values and receptor selectivity profiles could be examined. […] Thus, the N-acylsulfonamide agonists disclosed are selective for monomeric receptors.
# (§4) Additional compounds were tested for biological activity following the procedures of Example 1 with minor modifications.
# (§5) For these in vitro receptor assays, the compounds listed were tested in in vitro PP2C inhibition assays with 50 uM of the test compound except for ABA (10 uM). IC50s were calculated from dose curves, but only for selected compounds.
# PYL8 = target: T2, PYL8 (Arabidopsis thaliana, UniProt Q9FGM1); assay: as above; format: biochemical; conditions: for remaining activity at 25 µM / PP2C Activity (25 μm) PYL8: compound at 25 μM, control without agonist = 100%
# T2 construct: 6X-His; made in house; host or cells: E. coli BL21[DE3]pLysS
# T2 sequence (Q9FGM1 1-188): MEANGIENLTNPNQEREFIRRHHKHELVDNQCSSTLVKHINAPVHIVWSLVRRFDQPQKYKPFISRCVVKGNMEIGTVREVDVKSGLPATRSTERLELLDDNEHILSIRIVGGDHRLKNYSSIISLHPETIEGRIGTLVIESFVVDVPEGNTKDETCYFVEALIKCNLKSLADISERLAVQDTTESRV
# T2 sequence (Q9CAJ0 23-511 partner): T1 sequence (Q9CAJ0 23-511 partner)
# Protocol: as §1, §2, §3, §4, §5
# PYL4 = target: T3, PYL4 (Arabidopsis thaliana, UniProt O80920); assay: as above; format: biochemical; conditions: compound at 25 μM; control without agonist = 100%
# T3 construct: 6X-His; made in house; host or cells: E. coli BL21[DE3]pLysS
# T3 sequence (O80920 1-207): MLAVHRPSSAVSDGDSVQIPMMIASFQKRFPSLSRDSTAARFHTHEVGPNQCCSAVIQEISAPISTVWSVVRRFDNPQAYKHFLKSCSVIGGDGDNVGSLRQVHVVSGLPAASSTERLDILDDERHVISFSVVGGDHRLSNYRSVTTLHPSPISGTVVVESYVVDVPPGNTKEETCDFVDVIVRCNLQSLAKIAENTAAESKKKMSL
# T3 sequence (Q9CAJ0 23-511 partner): T1 sequence (Q9CAJ0 23-511 partner)
# Protocol: as §1, §2, §3, §4, §5
# PYL9 = target: T4, PYL9 (Arabidopsis thaliana, UniProt Q84MC7); assay: as above; format: biochemical; conditions: for remaining activity at 25 µM / PP2C Activity (25 μm) PYL9: compound at 25 μM, control without agonist = 100%
# T4 construct: 6X-His; made in house; host or cells: E. coli BL21[DE3]pLysS
# T4 sequence (Q84MC7 1-187): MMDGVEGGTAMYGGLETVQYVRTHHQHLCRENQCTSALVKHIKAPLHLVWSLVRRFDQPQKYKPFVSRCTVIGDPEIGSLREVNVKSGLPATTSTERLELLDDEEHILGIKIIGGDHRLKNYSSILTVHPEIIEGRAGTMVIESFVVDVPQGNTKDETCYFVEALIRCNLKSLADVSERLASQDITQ
# T4 sequence (Q9CAJ0 23-511 partner): T1 sequence (Q9CAJ0 23-511 partner)
# Protocol: as §1, §2, §3, §4, §5
# PYL5 = target: T5, PYL5 (Arabidopsis thaliana, UniProt Q9FLB1); assay: as above; format: biochemical; conditions: for remaining activity at 25 µM / PP2C Activity (25 μm) PYL5: compound at 25 μM, control without agonist = 100%
# T5 construct: 6X-His; made in house; host or cells: E. coli BL21[DE3]pLysS
# T5 sequence (Q9FLB1 1-203): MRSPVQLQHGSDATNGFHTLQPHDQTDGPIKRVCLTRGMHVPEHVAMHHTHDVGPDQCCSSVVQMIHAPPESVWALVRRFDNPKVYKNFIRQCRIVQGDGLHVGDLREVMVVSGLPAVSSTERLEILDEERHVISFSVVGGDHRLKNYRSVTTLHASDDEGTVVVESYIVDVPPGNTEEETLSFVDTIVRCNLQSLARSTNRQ
# T5 sequence (Q9CAJ0 23-511 partner): T1 sequence (Q9CAJ0 23-511 partner)
# Protocol: as §1, §2, §3, §4, §5
# PYL6 = target: T6, PYL6 (Arabidopsis thaliana, UniProt Q8S8E3); assay: as above; format: biochemical; conditions: Table VII; read-out: PP2C Dose Curves PYL6 (IC50)
# T6 construct: 6X-His; made in house; host or cells: E. coli BL21[DE3]pLysS
# T6 sequence (Q8S8E3 1-215): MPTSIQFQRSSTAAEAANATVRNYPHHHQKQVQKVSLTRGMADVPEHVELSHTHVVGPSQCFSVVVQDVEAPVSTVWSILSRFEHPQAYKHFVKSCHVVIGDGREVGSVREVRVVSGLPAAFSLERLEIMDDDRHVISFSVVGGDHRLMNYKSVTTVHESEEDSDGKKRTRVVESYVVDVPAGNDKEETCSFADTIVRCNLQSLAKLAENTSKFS
# T6 sequence (Q9CAJ0 23-511 partner): T1 sequence (Q9CAJ0 23-511 partner)
# Protocol: as §1, §2, §3, §4, §5
# [1] = tested on: Arabidopsis seed germination and hypocotyl growth; assay: Arabidopsis seed germination and hypocotyl growth; format: in vivo; conditions: − = none; for Hypocotyl Growth Inhibition: Germination Inhibition II, tested at 10 and 50 uM, lowest concentration that inhibited hypocotyl growth in wells where seeds germinated; for minimal effective concentration: Table VIII, tested at 10 or 50 μM, lowest inhibiting concentration, read-out: Hypocotyl Growth Inhibition
# Protocol: We germinated seeds from wild type on ½× strength Murashige and Skoog salts growth medium containing either 10 or 50 μM for all 62 compounds as well as 1 μM (+)-ABA and mock controls. […] To investigate if the any of the compounds are sufficient to control vegetative ABA responses, we treated three week old Arabidopsis plants with aqueous solutions containing 0.02% Silwet and either 50 μM of selected N-acylsulfonamides, 50 μM ABA or 0.1% DMSO (the carrier solvent for the compounds tested). The leaf temperatures were subsequently examined using a thermal imaging camera 24 hours after treatment. It is well known that ABA-induced guard cell closure reduces transpiration, which leads to increases in leaf temperatures. It has been estimated that a 1° C. increase in leaf temperature correlates with a decrease in transpiration rates by approximately 50% (Sirault et al., 2009). Since guard cell aperture is the primary determinant of transpiration rates, thermal imaging is a useful way to indirectly infer relative transpiration rates and, indirectly, relative degrees of guard cell opening at the whole plant level.
# as §4
# For the germination inhibition experiment, the compounds were tested at 10 and 50 uM. The amounts shown are the lowest of the two concentrations that either inhibited germination or hypocotyl growth in wells where seeds germinated.
# For the germination test, the compounds were tested at 1, 5, 10, 25 and 50 uM. The amounts shown are the lowest of the concentrations that either inhibited germination or hypocotyl growth in the wells where seeds germinated.
IC50 (PYL11) [µM],"IC50 (PYL8; Table VII, read-out: PP2C Dose Curves PYL8 (IC50)) [µM]",remaining activity at 25 µM (PYL8) [%],remaining activity at 25 µM (PYL4) [%],"IC50 (PYL9; Table VII, read-out: PP2C Dose Curves PYL9 (IC50)) [µM]",remaining activity at 25 µM (PYL9) [%],"IC50 (PYL5; Table VII, read-out: PP2C Dose Curves PYL5 (IC50)) [µM]",remaining activity at 25 µM (PYL5) [%],IC50 (PYL6) [µM],PP2C Activity (25 μm) PYL8 (PYL8) [%],PP2C Activity (25 μm) PYL4 (PYL4) [%],PP2C Activity (25 μm) PYL9 (PYL9) [%],PP2C Activity (25 μm) PYL5 (PYL5) [%],SMILES,Hypocotyl Growth Inhibition [1] [µM],minimal effective concentration [1] [µM],minimal effective concentration ([1]; Arabidopsis thaliana) [µM]
18.5,111,73,95,39.6,55,7.06,24,15.3,,,,,N#Cc1ccc(CS(=O)(=O)NC(=O)C2(c3cccc(F)c3)CC2)cc1 [Compound 46],,,
,,,,,,,,,99,89,98,95,CC(C)(C(=O)NS(=O)(=O)Cc1ccc(C#N)cc1)c1ccc2c(c1)OCCO2 [Compound 53],50,50,
,,,,,,,,,106,97,109,68,CC(C)(C(=O)NS(=O)(=O)Cc1ccc(C#N)cc1)c1ccc2ccccc2c1 [Compound 54],50,50,
,,75,91,,68,,16,,,,,,CC1(C(=O)NS(=O)(=O)Cc2ccc(C#N)cc2)CCCc2ccccc21 (stereo not drawn) [Compound 61],50,,50
